# Reference: patent US7741350B1 (Cara Therapeutics, Inc., priority 2009, dated 2010)
# Like-named read-outs stand apart in the source and are kept apart here.
# Experiments:
# [1] = molecular target: human CB1 receptor (hCB1) (Homo sapiens, UniProt P21554); test: cAMP assay at human CB1 receptor; type: cell-based; conditions: hCB1R; maximum measurable range 30 μM; read-out: EC50 (Potency at Human CB1 determined by cAMP Assay)
# Method: The ability of each of the compounds to act as agonists or inverse agonists at human CB2 and CB1 receptors (hCB2, hCB1, respectively) and at the rat CB2 receptor (rCB2) was determined by measuring changes in intracellular cyclic AMP (cAMP) levels as described in U.S. Pat. No. 7,517,874.
# TR-FRET was measured using a 330-380 nm excitation filter, 615 nm and 665 nm emission filters, dichroic minor 380 nm and Z=10 mm. cAMP concentrations in each well were back-calculated from a cAMP standard curve run concurrently during each assay. Each plate contained 16 wells of forskolin stimulated cells and 16 wells of forskolin plus 1 μM CP55,940-treated cells. Concentrations of cAMP were expressed as a percent of the difference of these two groups of wells. Concentration-response data including EC50 (the concentration of compound producing 50% of the maximal response) and intrinsic activity (the percent maximal activation compared to full activation by CP55, 940) were determined using a four-parameter non-linear regression algorithm (CambridgeSoft Bioassay).
# [2] = molecular target: human CB2 receptor (hCB2) (Homo sapiens, UniProt P34972); test: cAMP assay at human CB2 receptor; type: cell-based; conditions: hCB2R, maximum measurable range 30 μM
# Sequence of human CB2 receptor (hCB2) (P34972 whole entry): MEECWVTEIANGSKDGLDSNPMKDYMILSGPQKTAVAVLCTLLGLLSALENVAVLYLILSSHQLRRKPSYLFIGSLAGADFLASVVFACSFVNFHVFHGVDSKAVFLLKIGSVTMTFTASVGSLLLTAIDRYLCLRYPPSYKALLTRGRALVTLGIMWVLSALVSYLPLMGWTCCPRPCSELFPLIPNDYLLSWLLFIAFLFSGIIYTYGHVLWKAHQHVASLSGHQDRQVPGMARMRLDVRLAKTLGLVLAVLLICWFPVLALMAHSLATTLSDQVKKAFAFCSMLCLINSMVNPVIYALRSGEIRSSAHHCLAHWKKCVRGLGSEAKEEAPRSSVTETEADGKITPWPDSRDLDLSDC
# Method: TR-FRET was measured using a 330-380 nm excitation filter, 615 nm and 665 nm emission filters, dichroic minor 380 nm and Z=10 mm. cAMP concentrations in each well were back-calculated from a cAMP standard curve run concurrently during each assay. Each plate contained 16 wells of forskolin stimulated cells and 16 wells of forskolin plus 1 μM CP55,940-treated cells. Concentrations of cAMP were expressed as a percent of the difference of these two groups of wells.
# [3] = EC50 (Potency at Human CB2 determined by cAMP Assay)
# [4] = read-out: EC50 (Potency at Human CB2 determined by cAMP Assay)
# Sequence of human CB1 receptor (hCB1) (P21554 whole entry): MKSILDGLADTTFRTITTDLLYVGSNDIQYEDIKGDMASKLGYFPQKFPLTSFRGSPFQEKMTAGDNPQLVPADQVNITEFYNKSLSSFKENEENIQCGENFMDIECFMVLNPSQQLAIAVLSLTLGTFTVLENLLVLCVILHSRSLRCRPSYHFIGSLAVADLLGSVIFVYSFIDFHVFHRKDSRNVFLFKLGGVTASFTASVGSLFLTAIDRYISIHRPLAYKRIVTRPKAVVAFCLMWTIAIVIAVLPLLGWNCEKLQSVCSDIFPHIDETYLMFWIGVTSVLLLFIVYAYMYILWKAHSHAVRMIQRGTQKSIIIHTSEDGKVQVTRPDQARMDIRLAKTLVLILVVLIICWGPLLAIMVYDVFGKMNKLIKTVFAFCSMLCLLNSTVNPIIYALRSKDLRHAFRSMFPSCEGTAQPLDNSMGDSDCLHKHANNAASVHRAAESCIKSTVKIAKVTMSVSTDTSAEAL
SMILES,EC50 [1],"EC50 [2, 3]","EC50 [2, 4]"
"CNC(=O)[C@@H](NC(=O)n1nc(-c2ccc(F)c(F)c2)c2c1CCN(C)C2)C(C)(C)C [Compound 42, (S)-3-(3,4-difluorophenyl)-N-(3,3-dimethyl-1-(methylamino)-1-oxobutan-2-yl)-5-methyl-4,5,6,7-tetrahydro-1H-pyrazolo[4,3-c]pyridine-1-carboxamide]",< 1 µM,< 1 µM,–
"COC(=O)[C@@H](NC(=O)n1nc(-c2cc(F)c(F)cc2F)c2c1CCOC2)C(C)(C)C [Compound 34, (S)-methyl 3,3-dimethyl-2-(3-(2,4,5-trifluorophenyl)-1,4,6,7-tetrahydropyrano[4,3-c]pyrazole-1-carboxamido)butanoate]",< 1 µM,< 1 µM,–
"CNC(=O)[C@@H](NC(=O)n1nc(-c2cc(F)c(F)cc2F)c2c1CCOC2)C(C)(C)C [Compound 30, (S)—N-(3,3-dimethyl-1-(methylamino)-1-oxobutan-2-yl)-3-(2,4,5-trifluorophenyl)-6,7-dihydropyrano[4,3-c]pyrazole-1(4H)-carboxamide]",< 1 µM,< 1 µM,–
"CCOC(=O)N1CCN(C(=O)[C@@H](NC(=O)n2nc(-c3cc(F)c(F)cc3F)c3c2CCN(C)C3)C(C)(C)C)CC1 [Compound 77, (S)-ethyl 4-(3,3-dimethyl-2-(5-methyl-3-(2,4,5-trifluorophenyl)-4,5,6,7-tetrahydro-1H-pyrazolo[4,3-c]pyridine-1-carboxamido)butanoyl)piperazine-1-carboxylate]",< 1 µM,–,> 1 µM
"CNC(=O)[C@@H](NC(=O)n1nc(-c2ccc(C(F)(F)F)cc2F)c2c1CCN(C)C2)C(C)(C)C [Compound 43, (S)—N-(3,3-dimethyl-1-(methylamino)-1-oxobutan-2-yl)-3-(2-fluoro-4-(trifluoromethyl)phenyl)-5-methyl-4,5,6,7-tetrahydro-1H-pyrazolo[4,3-c]pyridine-1-carboxamide]",< 1 µM,–,> 1 µM
"CNC(=O)[C@@H](NC(=O)n1nc(-c2cc(F)ccc2F)c2c1CCN(C)C2)C(C)(C)C [Compound 64, (S)-3-(2,5-difluorophenyl)-N-(3,3-dimethyl-1-(methylamino)-1-oxobutan-2-yl)-5-methyl-4,5,6,7-tetrahydro-1H-pyrazolo[4,3-c]pyridine-1-carboxamide]",< 1 µM,–,> 1 µM
"CN1CCc2c(c(-c3cc(F)ccc3F)nn2C(=O)N[C@H](CO)C(C)(C)C)C1 [Compound 66, (S)-3-(2,5-difluorophenyl)-N-(1-hydroxy-3,3-dimethylbutan-2-yl)-5-methyl-4,5,6,7-tetrahydro-1H-pyrazolo[4,3-c]pyridine-1-carboxamide]",< 1 µM,–,> 1 µM
"CN1CCc2c(c(-c3ccc(F)c(F)c3)nn2C(=O)N[C@H](C(=O)N2CC[C@H](O)C2)C(C)(C)C)C1 [Compound 47, 3-(3,4-difluorophenyl)-N—((S)-1-((S)-3-hydroxypyrrolidin-1-yl)-3,3-dimethyl-1-oxobutan-2-yl)-5-methyl-4,5,6,7-tetrahydro-1H-pyrazolo[4,3-c]pyridine-1-carboxamide]",< 1 µM,–,> 1 µM
"CN1CCc2c(c(-c3cc(F)c(F)cc3F)nn2C(=O)N[C@H](C(N)=O)C(C)(C)C)C1 [Compound 41, (S)—N-(1-amino-3,3-dimethyl-1-oxobutan-2-yl)-5-methyl-3-(2,4,5-trifluorophenyl)-4,5,6,7-tetrahydro-1H-pyrazolo[4,3-c]pyridine-1-carboxamide]",< 1 µM,–,> 1 µM
"CNC(=O)[C@@H](NC(=O)n1nc(-c2ccc(F)c(F)c2)c2c1CCCC2)C(C)(C)C [Compound 29, (S)-3-(3,4-difluorophenyl)-N-(3,3-dimethyl-1-(methylamino)-1-oxobutan-2-yl)-4,5,6,7-tetrahydro-1H-indazole-1-carboxamide]",< 1 µM,< 1 µM,–
"CNC(=O)[C@@H](NC(=O)n1nc(-c2ccc(F)c(F)c2)c2c1CN(C)CC2)C(C)(C)C [Compound 61, (S)-3-(3,4-difluorophenyl)-N-(3,3-dimethyl-1-(methylamino)-1-oxobutan-2-yl)-6-methyl-4,5,6,7-tetrahydro-1H-pyrazolo[3,4-c]pyridine-1-carboxamide]",< 1 µM,< 1 µM,–
"CC(C)(C)[C@H](NC(=O)n1nc(-c2ccc(F)c(F)c2)c2c1CCOC2)C(=O)N1CC[C@H](O)C1 [Compound 60, 3-(3,4-difluorophenyl)-N—((S)-1-((S)-3-hydroxypyrrolidin-1-yl)-3,3-dimethyl-1-oxobutan-2-yl)-6,7-dihydropyrano[4,3-c]pyrazole-1(4H)-carboxamide]",< 1 µM,< 1 µM,–
"CNC(=O)[C@@H](NC(=O)n1nc(-c2ccc(F)c(F)c2)c2c1CCCCN2C)C(C)(C)C [Compound 69, (S)-3-(3,4-difluorophenyl)-N-(3,3-dimethyl-1-(methylamino)-1-oxobutan-2-yl)-4-methyl-5,6,7,8-tetrahydropyrazolo[4,3-b]azepine-1(4H)-carboxamide]",< 1 µM,< 1 µM,–
"CNC(=O)[C@@H](NC(=O)n1nc(C(C)(C)C)c2c1CCN(C)C2)C(C)(C)C [Compound 44, (S)-3-tert-butyl-N-(3,3-dimethyl-1-(methylamino)-1-oxo-butan-2-yl)-5-methyl-4,5,6,7-tetrahydro-1H-pyrazolo[4,3-c]pyridine-1-carboxamide]",> 1 µM,< 1 µM,–
"CNC(=O)[C@@H](NC(=O)n1nc(-c2cc(C(F)(F)F)ccc2F)c2c1CCNC2)C(C)(C)C [Compound 58, (S)—N-(3,3-dimethyl-1-(methylamino)-1-oxobutan-2-yl)-3-(2-fluoro-5-(trifluoromethyl)phenyl)-4,5,6,7-tetrahydro-1H-pyrazolo[4,3-c]pyridine-1-carboxamide]",< 1 µM,–,> 1 µM
"CNC(=O)[C@@H]1CCCN1C(=O)[C@@H](NC(=O)n1nc(-c2cc(F)c(F)cc2F)c2c1CCN(C)C2)C(C)(C)C [Compound 76, N—((S)-3,3-dimethyl-1-((S)-2-(methyl-carbamoyl)pyrrolidin-1-yl)-1-oxobutan-2-yl)-5-methyl-3-(2,4,5-trifluorophenyl)-4,5,6,7-tetrahydro-1H-pyrazolo[4,3-c]pyridine-1-carboxamide]",< 1 µM,–,> 1 µM
"CN1CCc2c(c(-c3ccc(F)c(F)c3)nn2C(=O)N2CCC(O)CC2)C1 [Compound 45, (3-(3,4-difluorophenyl)-5-methyl-4,5,6,7-tetrahydro-1H-pyrazolo[4,3-c]pyridin-1-yl)(4-hydroxypiperidin-1-yl)methanone]",> 1 µM,–,> 1 µM
"CNC(=O)[C@@H](NC(=O)n1nc(-c2ccc(F)c(F)c2)c2c1CCC(O)C2)C(C)(C)C (mixture of isomers) [Compound 67, 3-(3,4-difluorophenyl)-N—((S)-3,3-dimethyl-1-(methylamino)-1-oxobutan-2-yl)-5-hydroxy-4,5,6,7-tetrahydro-1H-indazole-1-carboxamide]",< 1 µM,< 1 µM,–
"CN1CCc2c(c(-c3ccc(F)c(F)c3)nn2C(=O)N[C@H](CO)C(C)(C)C)C1 [Compound 48, (S)-3-(3,4-difluorophenyl)-N-(1-hydroxy-3,3-dimethylbutan-2-yl)-5-methyl-4,5,6,7-tetrahydro-1H-pyrazolo[4,3-c]pyridine-1-carboxamide]",> 1 µM,< 1 µM,–
"CNC(=O)[C@@H](NC(=O)n1nc(-c2cc(F)c(F)cc2F)c2c1CCNC2)C(C)(C)C [Compound 84, (S)—N-(3,3-dimethyl-1-(methylamino)-1-oxobutan-2-yl)-3-(2,4,5-trifluorophenyl)-4,5,6,7-tetrahydro-1H-pyrazolo[4,3-c]pyridine-1-carboxamide]",< 1 µM,< 1 µM,–
"CNC(=O)[C@@H](NC(=O)n1nc(-c2ccc(F)c(F)c2)c2c1CCCN2C)C(C)(C)C [Compound 62, (S)-3-(3,4-difluorophenyl)-N-(3,3-dimethyl-1-(methylamino)-1-oxobutan-2-yl)-4-methyl-4,5,6,7-tetrahydro-1H-pyrazolo[4,3-b]pyridine-1-carboxamide]",< 1 µM,< 1 µM,–
CN1CCc2c(c(-c3ccc(F)c(F)c3)nn2C(=O)N[C@@]23C[C@@H]4C[C@@H](C[C@@](O)(C4)C2)C3)C1 [Compound 55],< 1 µM,< 1 µM,–
"CNC(=O)[C@@H](NC(=O)n1nc(-c2ccc(F)cc2)c2c1CCN(C)C2)C(C)(C)C [Compound 54, (S)—N-(3,3-dimethyl-1-(methylamino)-1-oxobutan-2-yl)-3-(4-fluorophenyl)-5-methyl-4,5,6,7-tetrahydro-1H-pyrazolo[4,3-c]pyridine-1-carboxamide]",< 1 µM,< 1 µM,–
"CNC(=O)[C@@H](NC(=O)n1nc(-c2ccc(F)c(F)c2)c2c1CCNC2)C(C)(C)C [Compound 52, (S)-3-(3,4-difluorophenyl)-N-(3,3-dimethyl-1-(methylamino)-1-oxobutan-2-yl)-4,5,6,7-tetrahydro-1H-pyrazolo[4,3-c]pyridine-1-carboxamide]",< 1 µM,< 1 µM,–
